Source: patent publication US20080194585A1, “Fungicidal Pyrazine Derivatives” (priority 2005, published 2008)
Marks after values point to notes of the source that are not given here.

Legend:
Phytophthora infestans = experiment: whole plant or invertebrate; assay type: in vivo
Septoria tritici = experiment: Test J: wheat leaf blotch, preventive spray on wheat seedlings; assay type: in vivo
Text: A dash (-) indicates no test results.

Septoria nodorum = experiment: Test H: wheat glum blotch, preventive spray on wheat seedlings
Procedure: (the causal agent of wheat glum blotch) and incubated in a saturated atmosphere at 20° C. for 48 h, and then moved to a growth chamber at 22° C. for 5 days, after which disease ratings were made.

Botrytis cinerea = experiment: Test E: tomato botrytis, preventive spray on tomato seedlings
[1] = system: Colletotrichum orbiculare; experiment: Test B: cucumber Colletotrichum anthracnose, preventive spray on cucumber seedlings
Rhizoctonia oryzae = experiment: Test G: turf brown patch, preventive spray on creeping bent grass seedlings
Procedure: (the causal agent of turf brown patch) and incubated in a saturated atmosphere at 27° C. for 24 h, and then moved to a growth chamber at 27° C. for 5 days, after which disease ratings were made.

Plasmopara viticola = experiment: Test D: grape downy mildew, spray after inoculation of grape seedlings; assay type: in vivo
Text: Upon removal, disease ratings were made. […] A dash (-) indicates no test results.

fusarium graminearium = experiment: Test I: wheat head scab, preventive spray on wheat seedlings
Procedure: (the causal agent of wheat head scab) and incubated in a saturated atmosphere at 20° C. for 72 h, and then moved to a growth chamber at 22° C. for 5 days, after which disease ratings were made.

[2] = system: Erysiphe graminis f. sp. tritici; experiment: Test L: wheat powdery mildew, preventive spray on wheat seedlings
Pythium aphanidermatum = experiment: Test A: bluegrass pythium blight, preventive spray on bluegrass seedlings
[3] = system: Puccinia recondita f. sp. tritici; experiment: Test K: wheat leaf rust, preventive spray on wheat seedlings

Compound | Test F disease control rating (Phytophthora infestans; 200 ppm) [%] | Test D disease control rating (Plasmopara viticola; 200 ppm) [%] | Test I disease control rating (fusarium graminearium; 200 ppm) [%] | Test A disease control rating (Pythium aphanidermatum; 200 ppm) [%] | Test J disease control rating (Septoria tritici; 40 ppm (*)) | Test H disease control rating (Septoria nodorum; 40 ppm (*)) | Test E disease control rating (Botrytis cinerea; 40 ppm (*)) | Test B disease control rating ([1]; 40 ppm (*)) | Test G disease control rating (Rhizoctonia oryzae; 40 ppm (*)) | Test L disease control rating ([2]; 40 ppm (*)) | Test K disease control rating ([3]; 40 ppm (*)) | further results
N#Cc1nc(Cl)c(-c2c(F)cccc2F)n(Cc2ccccc2)c1=O [compound 106] | 0 | 0 | 0 | 0 | – | – | – | – | – | – | – | Test J disease control rating (Septoria tritici; 200 ppm): 12%; Test H disease control rating (Septoria nodorum; 200 ppm): 0%; Test E disease control rating (Botrytis cinerea; 200 ppm): 0%; Test B disease control rating ([1]; 200 ppm): 0%; Test G disease control rating (Rhizoctonia oryzae; 200 ppm): 0%; Test L disease control rating ([2]; 200 ppm): 94%; Test K disease control rating ([3]; 200 ppm): 91%
CC(c1ccccc1)n1c(-c2c(F)cccc2F)c(Cl)nc(-n2cccn2)c1=O (stereo not drawn) [compound 107] | 0 | 0 | 69 | 0 | – | – | – | – | – | – | – | Test J disease control rating (Septoria tritici; 200 ppm): 93%; Test H disease control rating (Septoria nodorum; 200 ppm): 0%; Test E disease control rating (Botrytis cinerea; 200 ppm): 0%; Test B disease control rating ([1]; 200 ppm): 0%; Test G disease control rating (Rhizoctonia oryzae; 200 ppm): 0%; Test L disease control rating ([2]; 200 ppm): 0%; Test K disease control rating ([3]; 200 ppm): 98%
CC(c1ccccc1)n1c(-c2c(F)cccc2F)c(Cl)nc(-n2cncn2)c1=O (stereo not drawn) [compound 108] | 0 | 0 | 0 | 0 | – | – | – | – | – | – | – | Test J disease control rating (Septoria tritici; 200 ppm): 11%; Test H disease control rating (Septoria nodorum; 200 ppm): 0%; Test E disease control rating (Botrytis cinerea; 200 ppm): 56%; Test B disease control rating ([1]; 200 ppm): 0%; Test G disease control rating (Rhizoctonia oryzae; 200 ppm): 0%; Test L disease control rating ([2]; 200 ppm): 0%; Test K disease control rating ([3]; 200 ppm): 0%
CC(c1ccccc1)n1c(-c2c(F)cccc2F)c(Cl)nc(C#N)c1=O (stereo not drawn) [compound 109] | 0 | 0 | 0 | 0 | – | – | – | – | – | – | – | Test J disease control rating (Septoria tritici; 200 ppm): 0%; Test H disease control rating (Septoria nodorum; 200 ppm): 0%; Test E disease control rating (Botrytis cinerea; 200 ppm): 0%; Test B disease control rating ([1]; 200 ppm): 0%; Test G disease control rating (Rhizoctonia oryzae; 200 ppm): 0%; Test L disease control rating ([2]; 200 ppm): 0%; Test K disease control rating ([3]; 200 ppm): 0%
CC(C)Cn1c(-c2c(Cl)ccc(Cl)c2Cl)c(Cl)nc(-n2cccn2)c1=O [compound 121] | 0 | 0 | 0 | 0 | 100* % | 99* % | 100* % | 91* % | 44* % | 0* % | 99* % | –
CCC(C)Cn1c(-c2c(F)cccc2F)c(Cl)nc(NN(C)C)c1=O (stereo not drawn) [compound 134] | 0 | 0 | 89 | 0 | 59* % | 0* % | 0* % | 0* % | 0* % | 0* % | 28* % | –
CCC(C)Cn1c(-c2c(F)cccc2F)c(Cl)nc(NN2CCOCC2)c1=O (stereo not drawn) [compound 135] | 0 | 0 | 0 | 0 | 0* % | 0* % | 0* % | 0* % | 0* % | 0* % | 0* % | –
Cc1cc(C)cc(-c2c(Cl)nc(-n3cncn3)c(=O)n2CC(C)C)c1 [compound 136] | 58 | 40 | 0 | 0 | 28* % | 0* % | 0* % | 0* % | 0* % | 0* % | 0* % | –
Cc1cc(C)cc(-c2c(Cl)nc(-n3cccn3)c(=O)n2CC(C)C)c1 [compound 137] | 0 | 0 | 0 | 0 | – | 0* % | 0* % | 0* % | 0* % | 0* % | 0* % | Test J disease control rating (Septoria tritici; 200 ppm): 30%
CCCCn1c(-c2c(F)cccc2F)c(Cl)nc(-n2cccn2)c1=O [compound 148] | 0 | 73 | 0 | 0 | 100* % | 100* % | 99* % | 47* % | 81* % | 98* % | 97* % | –
CC(C)Cn1c(-c2cc(C(F)(F)F)cc(C(F)(F)F)c2)c(Cl)nc(-n2cccn2)c1=O [compound 150] | – | – | – | – | 0* % | 0* % | 0* % | 0* % | 0* % | 0* % | 0* % | Test F disease control rating (Phytophthora infestans; 40 ppm (*)): 0* %; Test D disease control rating (Plasmopara viticola; 40 ppm (*)): 0* %; Test I disease control rating (fusarium graminearium; 40 ppm (*)): 0* %; Test A disease control rating (Pythium aphanidermatum; 40 ppm (*)): 0* %
CC(C)Cn1c(-c2ccc(Cl)o2)c(Cl)nc(-n2cccn2)c1=O [compound 151] | 33 | 31 | 0 | 0 | 12* % | 0* % | 98* % | 0* % | 0* % | 0* % | 19* % | –
CC(C)Cn1c(-c2ccc(Cl)s2)c(Cl)nc(-n2cccn2)c1=O [compound 152] | 0 | 16 | 0 | 0 | 91* % | 0* % | 100* % | 0* % | 0* % | 0* % | 55* % | –
CC(C)Cn1c(-c2ccoc2)c(Cl)nc(-n2cccn2)c1=O [compound 153] | 0 | 31 | 0 | 0 | 20* % | 0* % | 79* % | 0* % | 0* % | 0* % | 0* % | –
CC(C)Cn1c(-c2ccsc2)c(Cl)nc(-n2cccn2)c1=O [compound 154] | 0 | 50 | 0 | 0 | 45* % | 0* % | 99* % | 0* % | 0* % | 0* % | 0* % | –
CC(C)Cn1c(-c2ccc(Cl)o2)c(Cl)nc(-n2cncn2)c1=O [compound 156] | 0 | 0 | 0 | 0 | 14* % | 0* % | 0* % | 0* % | 0* % | 0* % | 0* % | –
CC(C)Cn1c(-c2ccc(Cl)s2)c(Cl)nc(-n2cncn2)c1=O [compound 157] | 0 | 0 | 49 | 0 | 47* % | 0* % | 0* % | 0* % | 0* % | 0* % | 0* % | –
CC(C)Cn1c(-c2ccoc2)c(Cl)nc(-n2cncn2)c1=O [compound 158] | 0 | 0 | 0 | 0 | 15* % | 0* % | 0* % | 0* % | 0* % | 0* % | 0* % | –
